These results are taken from patent US20220056018A1, “SREBP INHIBITORS COMPRISING A THIOPHENE CENTRAL RING” (Capulus Therapeutics, LLC, priority 2019, published 2022).

In general, EC50 refers to the concentration giving half of the maximal effect. For orientation: IC50 means the concentration needed to halve the response being measured. A low value points to greater potency in that assay.

The structures appear in SMILES notation. Some results are limits rather than exact numbers.

Assay type in all cases: cell-based
One experiment deals with SREBP. In words: Reporter Screening Assay (SRE-luciferase reporter, HepG2). The settings on record: Homo sapiens; SRE-luciferase reporter HepG2 cells, 24 hours, 0.01 uM to 10 uM; read-out: I: Reporter Screening Assay (Ave EC50 (nM)). In a few lines:
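HepG2 SREBP reporter cells carrying an SRE-luciferase construct were serum-washed, then treated for 24 h at 37° C with compounds (0.01 uM to 10 uM) in phenol-free medium with varying FBS levels. Total luminescence was read after a 30 min incubation with luciferase substrate.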
On the technique in general: Reporter assays use an easily measured gene product as a stand-in for the process of interest.

Another experiment concerns 786O. Put plainly: Cancer cell growth inhibition. Particulars: Homo sapiens, 786-0; 786O (kidney), 72 hr treatment. The method, then: (§1) The ability of select compounds to inhibit cell growth in various cancer cell lines are evaluated. […] The cell lines shown in Table 2 have reduced growth by at least 50% at 10 uM or lower over 72 hr treatment in growth media. The cell lines shown in Table 3 have reduced growth by at least 50% with an IC50 greater than 10 uM.
(§2) Six 10-fold compound dilutions are prepared in DMSO (e.g. 10 mM, 1 mM, 100 uM, 10 uM, 1 uM, and 0.1 uM). Single data points are acquired for each concentration. The final concentration of DMSO is 0.1%. The duration of the treatment is 72 hr. Growth inhibition is measured using Sulforhodamine B in a protein staining assay. Activity of the agents is determined by evaluation the following parameters: IC50, GI50, IC10, TGI, LC50, IC90, and GI90 (where these values can be calculated).

Another experiment relates to ACHN. In words: Cancer cell growth inhibition. Particulars: Homo sapiens; ACHN (kidney), 72 hr treatment. Here is the method:
as §1, §2

In another experiment the test system is BT20. Put plainly: Cancer cell growth inhibition. The settings on record: Homo sapiens, BT-20; BT20 (breast), 72 hr treatment. Here is the method:
as §1, §2

A further experiment has as its system C33A. In words: Cancer cell growth inhibition. Particulars: Homo sapiens, C-33-A; C33A (endometrial), 72 hr treatment. Here is the method:
as §1, §2

For a further experiment, the system named is DU145. Put plainly: Cancer cell growth inhibition. Particulars: Homo sapiens, DU-145; DU145 (prostate), 72 hr treatment. The method, then: as §1, §2
The subject of the next experiment is GRANTA-519. In words: Cancer cell growth inhibition. Particulars: Homo sapiens; GRANTA-519 (hematological), 72 hr treatment. The method, then: as §1, §2
For the next experiment, the system named is HL-60. Put plainly: Cancer cell growth inhibition. The settings on record: Homo sapiens; HL-60 (hematological), 72 hr treatment. The method, then:
as §1, §2

The next experiment deals with HS729. Put plainly: Cancer cell growth inhibition. Particulars: HS729 (muscle), 72 hr treatment. The method, then: as §1, §2
The test system of another experiment is HT1080. Put plainly: Cancer cell growth inhibition. Particulars: Homo sapiens, HT-1080; HT1080 (connective tissue), 72 hr treatment. Here is the method:
as §1, §2

The test system of another experiment is KASUMI-1. Put plainly: Cancer cell growth inhibition. The settings on record: Homo sapiens; KASUMI-1 (hematological), 72 hr treatment. Here is the method: as §1, §2
The next experiment has as its system MCF7. Put plainly: Cancer cell growth inhibition. Particulars: Homo sapiens; MCF7 (breast), 72 hr treatment. Here is the method: as §1, §2
In the next experiment the test system is MDAMB435. In words: Cancer cell growth inhibition. The settings on record: Homo sapiens, MDA-MB-435; MDAMB435 (skin), 72 hr treatment. The method, then:
as §1, §2

A further experiment deals with MDAMB468. Put plainly: Cancer cell growth inhibition. Particulars: Homo sapiens, MDA-MB-468; MDAMB468 (breast), 72 hr treatment. The method, then: as §1, §2
Another experiment relates to MHHES1. In words: Cancer cell growth inhibition. Particulars: Homo sapiens, MHH-ES-1; MHHES1 (bone), 72 hr treatment. The method, then:
as §1, §2

Another experiment relates to NCIH358M. In words: Cancer cell growth inhibition. Particulars: NCI-H358M; NCIH358M (lung), 72 hr treatment. Here is the method: as §1, §2
Another experiment relates to SKNSH. Put plainly: Cancer cell growth inhibition. Particulars: Homo sapiens, SK-N-SH; SKNSH (brain), 72 hr treatment. The method, then:
as §1, §2

A further experiment deals with SNB75. Put plainly: Cancer cell growth inhibition. The settings on record: Homo sapiens, SNB-75; SNB75 (brain), 72 hr treatment. Here is the method:
as §1, §2

For the next experiment, the system named is U87MG. In words: Cancer cell growth inhibition. Particulars: Homo sapiens, U-87 MG; U87MG (brain), 72 hr treatment. Here is the method:
as §1, §2

The subject of another experiment is UMUC3. In words: Cancer cell growth inhibition. Particulars: Homo sapiens; UMUC3 (bladder), 72 hr treatment. The method, then: as §1, §2
A further experiment has as its system WSU-NHL. Put plainly: Cancer cell growth inhibition. Particulars: Homo sapiens; WSU-NHL (hematological), 72 hr treatment. The method, then: as §1, §2

Regarding `CC(C)(CO)c1cc(-c2csc(-c3ccc(NS(C)(=O)=O)cc3Cl)c2)ccn1` [Compound I-8909, N-(3-chloro-4-(4-(2-(1-hydroxy-2-methylpropan-2-yl)pyridin-4-yl)thiophen-2-yl)phenyl)methanesulfonamide], the EC50 in the experiment with SREBP is less than 249 nM. In addition, the IC50 in the experiment on 786O was less than 10 µM; in the experiment on ACHN, less than 10 µM; with BT20 it was greater than 10 µM; in the experiment on C33A it was less than 10 µM; in the experiment on DU145, greater than 10 µM; in the experiment on GRANTA-519 it was greater than 10 µM. The IC50 was less than 10 µM with HL-60; greater than 10 µM in the experiment with HS729; less than 10 µM in the experiment with HT1080; greater than 10 µM with KASUMI-1; less than 10 µM with MCF7; greater than 10 µM with MDAMB435. In addition, the IC50 with MDAMB468 is less than 10 µM; in the experiment with MHHES1 it was less than 10 µM; in the experiment on NCIH358M it was less than 10 µM; in the experiment with SKNSH it was less than 10 µM; in the experiment on SNB75, greater than 10 µM; in the experiment on U87MG, greater than 10 µM. The IC50 in the experiment on UMUC3 and with WSU-NHL was less than 10 µM in each case.
Regarding `CC(C)(O)Cc1cc(-c2csc(-c3ccc(NS(C)(=O)=O)cc3Cl)c2)ccn1` [Compound I-9004, N-(3-chloro-4-(4-(2-(2-hydroxy-2-methylpropyl)pyridin-4-yl)thiophen-2-yl)phenyl)methanesulfonamide], the EC50 in the experiment with SREBP was less than 249 nM. Besides, the IC50 in the experiment on 786O is less than 10 µM; in the experiment with ACHN it was less than 10 µM; in the experiment on BT20, greater than 10 µM; in the experiment with C33A, less than 10 µM; with DU145, greater than 10 µM; in the experiment on GRANTA-519, greater than 10 µM. Also, the half-inhibitory concentration (IC50) was less than 10 µM in the experiment on HL-60; greater than 10 µM in the experiment on HS729; less than 10 µM with HT1080; greater than 10 µM in the experiment on KASUMI-1; less than 10 µM with MCF7; less than 10 µM in the experiment on MDAMB435. Also, the IC50 in the experiment with MDAMB468 is less than 10 µM; in the experiment with MHHES1 it was less than 10 µM; with NCIH358M, less than 10 µM; in the experiment with SKNSH, less than 10 µM; in the experiment with SNB75, greater than 10 µM; with U87MG, greater than 10 µM. Also, the IC50 in the experiment on UMUC3 and in the experiment on WSU-NHL was less than 10 µM in each case.
`CS(=O)(=O)Nc1ccc(-c2cc(-c3ccnc4c3OCCO4)cs2)c(Cl)c1` [Compound I-9017, N-(3-chloro-4-(4-(2,3-dihydro-[1,4]dioxino[2,3-b]pyridin-8-yl)thiophen-2-yl)phenyl)methanesulfonamide]: in the experiment on SREBP, the concentration giving a half-maximal response (EC50) was less than 249 nM. The half-maximal inhibitory concentration (IC50) in the experiment on 786O, with ACHN, with BT20, in the experiment with C33A, in the experiment with DU145 and in the experiment with GRANTA-519 was less than 10 µM each time. The IC50 in the experiment on HL-60 is less than 10 µM; in the experiment on HS729, greater than 10 µM; with HT1080, less than 10 µM; in the experiment on KASUMI-1, less than 10 µM; in the experiment with MCF7 it was less than 10 µM; with MDAMB435, greater than 10 µM. Further, the IC50 is less than 10 µM in the experiment on MDAMB468; less than 10 µM with MHHES1; less than 10 µM in the experiment on NCIH358M; less than 10 µM in the experiment with SKNSH; greater than 10 µM with SNB75; less than 10 µM with U87MG. The IC50 with UMUC3 and with WSU-NHL was less than 10 µM in each case.
